The supplement of paper PMC11061612

Columns and labels:
Assay in all cases: combination Emax (second highest fraction inhibited in the dose matrix, 72 h); higher = more inhibition; extreme values may be limits of the assay
[1] = system: BT-474 (Breast Carcinoma)
Method in brief: (§1)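 Cell lines in DMEM/F12 or RPMI with 10% FBS were plated in 1536-well plates, held 24 hours at 37°C, 5% CO2, then given two-drug dose matrices for 72 hours (DMSO typically 0.2%). Viability was read by CellTiter-Glo 2.0 luminescence and scaled as inhibition from 0 (vehicle wells) to 1 (blank wells). Combination Emax is the second-highest inhibition in the matrix; Bliss excess is observed combination effect minus expected EA + EB − EA·EB, EA and EB being single-agent effects.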

[2] = system: SCC90 (Head and Neck Carcinoma)
Method in brief: as §1

SK-N-DZ (Neuroblastoma) = system: SK-N-DZ (Neuroblastoma)
Method in brief: as §1

[3] = system: C2BBe1 (Colorectal Carcinoma)
Method in brief: as §1

[4] = system: HT-3 (Cervical Carcinoma)
Method in brief: as §1

[5] = system: GRANTA-519 (B-Cell Non-Hodgkin's Lymphoma)
Method in brief: as §1

[6] = system: SBC-5 (Small Cell Lung Carcinoma)
Method in brief: as §1

[7] = system: NCI-H2170 (Squamous Cell Lung Carcinoma)
Method in brief: as §1

[8] = system: NCI-H1944 (Lung Adenocarcinoma)
Method in brief: as §1

DK-MG (Glioblastoma) = system: DK-MG (Glioblastoma)
Method in brief: as §1

[9] = system: OCI-M1 (Acute Myeloid Leukemia)
Method in brief: as §1

[10] = system: NCI-H2023 (Non-Small Cell Lung Carcinoma)
Method in brief: as §1

[11] = system: NCI-H1048 (Small Cell Lung Carcinoma)
Method in brief: as §1

[12] = system: NCI-H835 (Other Solid Carcinomas)
Method in brief: as §1

[13] = system: SNU-1 (Gastric Carcinoma)
Method in brief: as §1

[14] = system: NCI-H1975 (Lung Adenocarcinoma)
Method in brief: as §1

[15] = system: ATN-1 (T-Lymphoblastic Leukemia)
Method in brief: as §1

[16] = system: JURL-MK1 (Chronic Myelogenous Leukemia)
Method in brief: as §1

[17] = system: IGROV-1 (Ovarian Carcinoma)
Method in brief: as §1

[18] = system: JJN-3 (Plasma Cell Myeloma)
Method in brief: as §1

| Compound | combination Emax [1] | combination Emax [2] | combination Emax (SK-N-DZ (Neuroblastoma)) | combination Emax [3] | combination Emax [4] | combination Emax [5] | combination Emax [6] | combination Emax [7] | combination Emax [8] | combination Emax (DK-MG (Glioblastoma)) | combination Emax [9] | combination Emax [10] | combination Emax [11] | combination Emax [12] | combination Emax [13] | combination Emax [14] | combination Emax [15] | combination Emax [16] | combination Emax [17] | combination Emax [18] |
| --- | --- | --- | --- | --- | --- | --- | --- | --- | --- | --- | --- | --- | --- | --- | --- | --- | --- | --- | --- | --- |
| C=CCn1c(=O)c2cnc(Nc3ccc(N4CCN(C)CC4)cc3)nc2n1-c1cccc(C(C)(C)O)n1 [AZD1775] + C1CN(CCC1(C(=O)N[C@@H](CCO)C2=CC=C(C=C2)Cl)N)C3=NC=NC4=C3C=CN4 [Capivasertib] (first compound max 3 µM, partner max 3 µM) | 0.47 | 0.668 | 0.921 | 0.533 | 0.736 | 0.865 | 0.87 | 0.828 | 0.861 | 0.485 | 0.974 | 0.652 | 0.91 | 0.866 | 0.727 | 0.714 | 0.994 | 0.986 | – | – |
| Cc1cc2ncnn2cc1Nc1ncc2c(n1)n(C1CCOCC1)c(=O)n2C [AZD7648] + C=CCn1c(=O)c2cnc(Nc3ccc(N4CCN(C)CC4)cc3)nc2n1-c1cccc(C(C)(C)O)n1 [AZD1775] (first compound max 10 µM, partner max 1 µM) | 0.324 | 0.905 | 0.927 | 0.345 | 0.401 | 0.8 | 0.359 | 0.741 | 0.583 | 0.43 | 0.87 | 0.703 | 0.747 | 0.69 | 0.628 | 0.421 | 1 | 0.99 | 0.819 | 0.704 |
| Cc1cc2ncnn2cc1Nc1ncc2c(n1)n(C1CCOCC1)c(=O)n2C [AZD7648] + CCN(CCO)CCCOc1ccc2c(Nc3cc(CC(=O)Nc4cccc(F)c4)[nH]n3)ncnc2c1 [AZD2811] (first compound max 10 µM, 7x7, partner max 1 µM) | 0.237 | 0.452 | 0.635 | 0.196 | 0.231 | 0.414 | 0.39 | 0.696 | 0.415 | 0.273 | 0.237 | 0.534 | 0.706 | 0.36 | 0.239 | 0.384 | 0.832 | 0.601 | 0.566 | 0.308 |
| Cc1cc2ncnn2cc1Nc1ncc2c(n1)n(C1CCOCC1)c(=O)n2C [AZD7648] + CN(C)CCCOc1ccc(-c2ccc3ncc4c(c3c2)n(C2CCOCC2)c(=O)n4C)cn1 [AZD0156] (first compound max 10 µM, 7x7, partner max 1 µM) | 0.234 | 0.353 | 0.31 | 0.211 | 0.143 | 0.249 | 0.224 | 0.335 | 0.29 | 0.27 | 0.173 | 0.586 | 0.407 | 0.36 | 0.193 | 0.398 | 0.481 | 0.406 | 0.584 | 0.17 |
| Cc1cc2ncnn2cc1Nc1ncc2c(n1)n(C1CCOCC1)c(=O)n2C [AZD7648] + C[C@@H]1COCCN1C2=NC(=NC(=C2)C3(CC3)[S@](=N)(=O)C)C4=C5C=CNC5=NC=C4 [AZD6738] (first compound max 10 µM, 7x7, partner max 10 µM) | 0.24 | 0.325 | 0.949 | 0.311 | 0.536 | 0.808 | 0.481 | 0.657 | 0.77 | 0.273 | 0.956 | 0.796 | 0.508 | 0.389 | 0.788 | 0.423 | 0.995 | 1 | 0.66 | 0.694 |
| Cc1nc(Nc2ncc(C(=O)Nc3c(C)cccc3Cl)s2)cc(N2CCN(CCO)CC2)n1 [Dasatinib] + CC(=O)Nc1cccc(-n2c(=O)n(C3CC3)c(=O)c3c(Nc4ccc(I)cc4F)n(C)c(=O)c(C)c32)c1 [Trametinib] (first compound max 2 µM, 7x7, partner max 1 µM) | 0.0101 | 0.846 | 0.192 | 0.692 | 0.157 | 0.205 | 0.409 | 0.537 | 0.65 | 0.895 | 0.884 | 0.394 | 0.144 | 0 | 0.475 | 0.662 | 0.591 | 1 | 0.956 | 0.446 |
| COc1cc2ncnc(Nc3ccc(F)c(Cl)c3)c2cc1OCCCN1CCOCC1 [Gefitinib] + CC(C)n1c(=O)n(C)c2cnc3cc(F)c(-c4ccc(OCCCN5CCCCC5)nc4)cc3c21 [AZD1390] (first compound max 10 µM, 7x7, partner max 0.3 µM) | 0.485 | 0.699 | 0.19 | 0.288 | 0.0187 | 0.201 | 0.0706 | 0.784 | 0.19 | 0.248 | 0.0417 | 0.151 | 0.0795 | 0.144 | 0.239 | 0.419 | 0.296 | 0.499 | – | 0.236 |
| COc1cc2c(cc1OCCCCCOc1cc3c(cc1OC)C(=O)N1C=C(C)C[C@H]1C=N3)N=C[C@@H]1CC(C)=CN1C2=O [SG3199] + O=C(c1cc(Cc2n[nH]c(=O)c3ccccc23)ccc1F)N1CCN(C(=O)C2CC2)CC1 [Olaparib] (first compound max 0.001 µM, 7x7, partner max 10 µM) | 0.049 | 0.173 | 0.358 | 0.0966 | 0.0808 | 0.324 | 0.0814 | 0.228 | 0.192 | 0.099 | 0.249 | 0.173 | 0.387 | 0.169 | 0.353 | 0.172 | 0.0857 | 0.418 | 0.358 | 0.254 |
| C[C@@H](c1ccc2nccn2c1)n1nnc2ncc(-c3cnn(C)c3)nc21 [Savolitinib] + CC1(C)CCC(CN2CCN(c3ccc(C(=O)NS(=O)(=O)c4ccc(NCC5CCOCC5)c([N+](=O)[O-])c4)c(Oc4cnc5[nH]ccc5c4)c3)CC2)=C(c2ccc(Cl)cc2)C1 [Venetoclax] (first compound max 1 µM, 7x7, partner max 1 µM) | 0.0943 | 0.381 | 0.173 | 0.0814 | 0.137 | 0.306 | 0.33 | 0.162 | 0.128 | 0.352 | 0.102 | 0.261 | 0.178 | 0.148 | 0.188 | 0.126 | 0.186 | 0.127 | 0.152 | 0.234 |
| C[C@@H](c1ccc2nccn2c1)n1nnc2ncc(-c3cnn(C)c3)nc21 [Savolitinib] + Cc1c2c(nn1C)CSCc1cc(n(C)n1)CSc1cc(c3ccccc3c1)OCCCc1c(C(=O)O)n(C)c3c-2c(Cl)ccc13 [AZD5991] (first compound max 1 µM, 7x7, partner max 1 µM) | 0.628 | 0.454 | 0.255 | 0.134 | 0.207 | 0.141 | 0.538 | 0.211 | 0.184 | 0.417 | 0.186 | 0.247 | 0.196 | 0.177 | 0.454 | 0.146 | 0.904 | 0.129 | 0.157 | 0.992 |
